# Laboratory results taken from patent US7338958B2, “Sulfoximine-substituted pyrimidines as CDK-and/or VEGF inhibitors, their production and use as pharmaceutical agents” (Schering AG, priority 2003, dated 2008).
# Counter-ions that a name gives are not always drawn.
# Key:
# [1] = tested on: MCF7, hormone-independent human breast cancer cells; test: Proliferation assay, MCF7; assay type: cell-based; conditions: MCF7, 96 h, 4 days incubation, crystal violet
# Procedure, shortened: (§1)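 Cells seeded ~5000/well, treated after 24 h with 0.01-30 μM compound (0.5% DMSO) for 4 days. Glutaraldehyde-fixed cells stained with crystal violet, absorbance at 595 nm; growth expressed as percent, normalized to zero-point plate (0%) and untreated cells (100%).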
# CDK2/CycE = biological target: T1, CDK2/CycE (Homo sapiens, UniProt P24941); test: CDK2/CycE Kinase Assay; assay type: biochemical; conditions: histone IIIS substrate, 33P-ATP, 15 minutes at 22° C.
# T1 construct: GST; purchased ProQinase GmbH, Freiburg; host or cells: baculovirus-infected insect cells (Sf9)
# Procedure, shortened: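 Recombinant GST-tagged CDK2/CycE from Sf9 cells (50 ng/point) was incubated with compound (0.01-100 μM) for 15 min at 22° C, pH 8.0, with 0.5 μM ATP plus ^33P-γ-ATP and histone IIIS as substrate, in 12.5% DMSO. Incorporated ^33P was counted after filter binding and washing.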
# CDK1/CycB = biological target: T2, CDK1/CycB (Homo sapiens, UniProt P06493); test: CDK1/CycB Kinase Assay; assay type: biochemical; conditions: histone IIIS substrate, 33P-ATP, 15 minutes at 22° C.
# T2 construct: GST; purchased ProQinase GmbH, Freiburg; host or cells: baculovirus-infected insect cells (Sf9)
# [2] = biological target: T3, VEGF receptor tyrosine kinase-2 (Homo sapiens, UniProt P35968); test: VEGF Receptor-2 Kinase Assay; assay type: biochemical; conditions: poly-(Glu4Tyr) substrate, 33P-ATP, 10 minutes at 22° C.; read-out: VEGF-R2 IC50
# T3 construct: GST; made in house; host or cells: baculovirus-infected insect cells (Sf9)
# [3] = tested on: HCT 116, human colon cancer cells; test: Proliferation assay, HCT116; assay type: cell-based; conditions: HCT-116, 96 h, 4 days incubation, crystal violet
# Text: Cultivated human tumor cells (MCF7, hormone-independent human breast cancer cells, related to ATCC HTB22; NCI-H460, human non-small-cell lung cancer cells, ATCC HTB-177, HCT 116, human colon cancer cells, ATCC CCL-247; DU 145, hormone-independent human prostate cancer cells, ATCC HTB-81; MaTu-MDR, hormone-independent, multiple pharmaceutical agent-resistant human breast cancer cells, EPO-GmbH, Berlin) were flattened out at a density of about 5000 cells/measuring point, depending on the growth rate of the respective cells, in a 96-well multititer plate in 200 μl of the corresponding growth medium. After 24 hours, the cells of one plate (zero-point plate) were colored with crystal violet (see below), while the medium of the other plates was replaced by fresh culture medium (200 μl), to which the test substances were added in various concentrations (0 μm, as well as in the range of 0.01-30 μm; the final concentration of the solvent dimethyl sulfoxide was 0.5%). The cells were incubated for 4 days in the presence of test substances. The cell proliferation was determined by coloring the cells with crystal violet: the cells were fixed by adding 20 μl/measuring point of an 11% glutaric aldehyde solution for 15 minutes at room temperature. After three washing cycles of the fixed cells with water, the plates were dried at room temperature. The cells were colored by adding 100 μl/measuring point of a 0.1% crystal violet solution (the pH was set at 3 by adding acetic acid). After three washing cycles of the colored cells with water, the plates were dried at room temperature. The dye was dissolved by adding 100 μl/measuring point of a 10% acetic acid solution. The extinction was determined by photometry at a wavelength of 595 nm. The change of cell growth, in percent, was calculated by normalization of the measured values to the extinction values of the zero-point plate (=0%) and the extinction of the untreated (0 μm) cells (=100%).
# [4] = tested on: DU 145, hormone-independent human prostate cancer cells; test: Proliferation assay, DU145; assay type: cell-based; conditions: DU-145, 96 h, 4 days incubation, crystal violet
# Procedure, shortened: as §1
# MaTu-ADR = test: Proliferation assay, MaTu-ADR; assay type: cell-based; conditions: Homo sapiens, 96 h, MaTu-ADR cells, 4 days incubation, crystal violet
# Procedure, shortened: as §1
# [5] = tested on: NCI-H460, human non-small-cell lung cancer cells; test: Proliferation assay, H460; assay type: cell-based; conditions: NCI-H460, 96 h, 4 days incubation, crystal violet
# Procedure, shortened: as §1
# T3 sequence (P35968 20-1356): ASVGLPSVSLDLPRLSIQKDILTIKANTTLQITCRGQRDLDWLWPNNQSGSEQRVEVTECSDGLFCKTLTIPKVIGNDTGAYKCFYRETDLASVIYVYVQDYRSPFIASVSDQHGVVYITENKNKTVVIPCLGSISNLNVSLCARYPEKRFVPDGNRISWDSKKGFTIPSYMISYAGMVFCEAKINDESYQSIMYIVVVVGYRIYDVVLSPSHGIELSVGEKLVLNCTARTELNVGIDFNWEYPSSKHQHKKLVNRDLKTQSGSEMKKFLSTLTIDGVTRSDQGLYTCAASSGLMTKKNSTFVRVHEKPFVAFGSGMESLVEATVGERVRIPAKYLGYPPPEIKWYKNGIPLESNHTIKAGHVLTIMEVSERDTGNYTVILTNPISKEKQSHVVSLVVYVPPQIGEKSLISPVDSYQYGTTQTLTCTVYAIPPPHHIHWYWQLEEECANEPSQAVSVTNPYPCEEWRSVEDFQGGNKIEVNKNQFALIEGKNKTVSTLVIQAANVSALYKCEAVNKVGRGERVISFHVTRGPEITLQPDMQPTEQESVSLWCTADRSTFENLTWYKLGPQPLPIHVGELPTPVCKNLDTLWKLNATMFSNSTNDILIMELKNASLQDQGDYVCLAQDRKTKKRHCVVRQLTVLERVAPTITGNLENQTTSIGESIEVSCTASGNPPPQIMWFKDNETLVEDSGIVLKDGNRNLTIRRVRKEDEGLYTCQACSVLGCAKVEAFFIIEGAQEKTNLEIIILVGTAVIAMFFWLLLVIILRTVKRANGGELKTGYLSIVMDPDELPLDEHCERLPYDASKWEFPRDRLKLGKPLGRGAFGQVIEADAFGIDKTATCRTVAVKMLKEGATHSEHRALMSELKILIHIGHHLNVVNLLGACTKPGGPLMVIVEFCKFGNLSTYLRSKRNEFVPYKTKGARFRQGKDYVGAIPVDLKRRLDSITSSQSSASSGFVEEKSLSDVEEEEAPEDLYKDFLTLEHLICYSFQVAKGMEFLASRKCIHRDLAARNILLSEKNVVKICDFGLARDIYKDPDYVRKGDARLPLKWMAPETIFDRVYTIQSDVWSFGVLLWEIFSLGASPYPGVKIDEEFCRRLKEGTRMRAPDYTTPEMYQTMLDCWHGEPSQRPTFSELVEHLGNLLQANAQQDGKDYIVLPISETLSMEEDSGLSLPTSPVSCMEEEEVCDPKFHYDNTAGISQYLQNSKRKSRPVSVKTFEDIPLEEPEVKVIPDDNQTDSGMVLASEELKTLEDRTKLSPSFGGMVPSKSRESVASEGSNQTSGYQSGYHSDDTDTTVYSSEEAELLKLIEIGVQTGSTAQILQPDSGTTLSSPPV
# T2 sequence (P06493 whole entry): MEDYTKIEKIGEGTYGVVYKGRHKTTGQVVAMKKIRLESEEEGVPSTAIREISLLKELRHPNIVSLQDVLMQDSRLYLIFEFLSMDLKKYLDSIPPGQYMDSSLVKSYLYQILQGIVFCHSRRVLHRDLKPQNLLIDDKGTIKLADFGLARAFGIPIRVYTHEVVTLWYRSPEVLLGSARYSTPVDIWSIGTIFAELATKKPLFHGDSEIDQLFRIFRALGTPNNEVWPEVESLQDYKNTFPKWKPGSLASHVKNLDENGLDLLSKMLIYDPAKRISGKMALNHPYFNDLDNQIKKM
# T2 sequence (P14635 whole entry partner): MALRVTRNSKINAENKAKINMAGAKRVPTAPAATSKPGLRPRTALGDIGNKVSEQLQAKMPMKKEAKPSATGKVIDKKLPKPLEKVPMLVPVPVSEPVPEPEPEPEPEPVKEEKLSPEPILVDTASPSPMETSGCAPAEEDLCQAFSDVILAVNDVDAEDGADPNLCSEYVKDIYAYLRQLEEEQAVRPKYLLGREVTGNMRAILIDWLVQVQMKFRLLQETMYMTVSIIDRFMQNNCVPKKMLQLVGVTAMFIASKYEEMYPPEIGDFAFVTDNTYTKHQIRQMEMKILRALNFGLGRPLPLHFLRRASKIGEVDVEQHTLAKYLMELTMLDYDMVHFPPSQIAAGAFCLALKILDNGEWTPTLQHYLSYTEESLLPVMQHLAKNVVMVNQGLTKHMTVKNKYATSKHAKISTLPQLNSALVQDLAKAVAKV
IC50 [1],IC50 (CDK2/CycE),IC50 (CDK1/CycB),IC50 [2],melting point,IC50 [3],IC50 [4],IC50 [5],SMILES,IC50 (MaTu-ADR)
0.4 µM,0.033 µM,0.097 µM,0.12 µM,175 to 183 °C,–,–,–,"CCC(C)Sc1nc(Nc2ccc(S(C)(=N)=O)cc2)ncc1Br (racemic) [Example 3.1, (RS)-S-[4-({5-bromo-4-[(RS)-(1-methyl-propyl)sulfanyl]pyrimidin-2-yl}amino)phenyl]-S-methyl sulfoximide]",–
0.5 µM,0.016 µM,0.049 µM,0.17 µM,175 to 180 °C,–,–,–,"CCC(CO)Sc1nc(Nc2ccc(S(C)(=N)=O)cc2)ncc1Br (racemic) [Example 3.0, (RS)-S-[4-({5-bromo-4-[(RS)-(1-hydroxymethyl-propyl)sulfanyl]pyrimidin-2-yl}amino)phenyl]-S-methyl sulfoximide]",–
–,–,–,–,192 to 194 °C,–,–,–,"CCC(Sc1nc(Nc2ccc(S(C)(=N)=O)cc2)ncc1Br)C(C)=O (racemic) (as salt: sodium) [Example 3.3, (RS)-S-[4-({4-[(RS)-(1-acetylpropyl)sulfanyl]-5-bromopyrimidin-2-yl}amino)phenyl]-S-methyl sulfoximide]",–
0.4 µM,0.004 µM,0.018 µM,–,218 to 220 °C,–,–,–,"CC(CO)Sc1nc(Nc2ccc(S(C)(=N)=O)cc2)ncc1Br (racemic) [Example 3.10, (RS)-S-[4-({5-bromo-4-[(RS)-(2-hydroxy-1-methyl-ethyl)sulfanyl]pyrimidin-2-yl}amino)phenyl]-S-methyl sulfoximide]",–
0.1 µM,–,0.019 µM,–,201 to 202 °C,–,< 0.1 µM,< 0.1 µM,"CC(Sc1nc(Nc2ccc(S(C)(=N)=O)cc2)ncc1Br)C(C)(C)O (racemic) [Example 3.7, (RS)-S-[4-({5-bromo-4-[(RS)-(2-hydroxy-1,2-dimethylpropyl)sulfanyl]pyrimidin-2-yl}amino)phenyl]-S-methyl sulfoximide]",< 0.1 µM
0.4 µM,0.027 µM,–,> 1 µM,218 °C (dec.),–,0.3 µM,0.3 µM,"CCC(Sc1nc(Nc2ccc(S(C)(=N)=O)cc2)ncc1Br)C(C)(C)O (racemic) [Example 3.8, (RS)-S-[4-({5-bromo-4-[(RS)-(1-ethyl-2-hydroxy-2-methylpropyl)sulfanyl]pyrimidin-2-yl}amino)phenyl]-S-methyl sulfoximide]",0.19 µM
0.12 µM,0.008 µM,0.017 µM,0.15 µM,–,–,0.06 µM,0.05 µM,"CC(O)C(C)Sc1nc(Nc2ccc(S(C)(=N)=O)cc2)ncc1Br (racemic) [Example 3.5, (RS)-S-[4-({5-bromo-4-[(RS,RS)-(2-hydroxy-1-methylpropyl)sulfanyl]pyrimidin-2-yl}amino)phenyl]-S-methyl sulfoximide]",0.03 µM

# Continued, molecule first:
SMILES,IC50 [1],IC50 (CDK2/CycE),IC50 (CDK1/CycB),IC50 [2],melting point,IC50 [3],IC50 [4],IC50 [5],IC50 (MaTu-ADR)
"C[C@@H](Nc1nc(Nc2ccc(S(C)(=N)=O)cc2)ncc1Br)C(C)(C)O (single isomer, unassigned) [Example 1.3]",< 0.1 µM,–,–,–,–,0.1 µM,0.2 µM,–,0.17 µM
"C[C@@H](O)[C@@H](C)Oc1nc(Nc2ccc(S(=O)(CCO)=NS(=O)(=O)CC[Si](C)(C)C)cc2)ncc1Br (mixture of isomers) [Example 1.20, (RS)-S-[4-({5-bromo-4-[(1R,2R)-2-hydroxy-1-methyl-propoxy]pyrimidin-2-yl}amino)phenyl]-S-(2-hydroxyethyl)-N-[2-(trimethylsilyl)ethylsulfonyl]sulfoximide]",0.2 µM,0.054 µM,0.16 µM,0.82 µM,–,–,0.4 µM,0.4 µM,2.1 µM
"C[C@H](CO)Nc1nc(Nc2ccc(S(=O)(CC3CC3)=NS(=O)(=O)CC[Si](C)(C)C)cc2)ncc1Br (mixture of isomers) [Example 1.7, (RS)-S-[4-({5-bromo-4-[(R)-(2-hydroxy-1-methylethyl)amino]pyrimidin-2-yl}amino)phenyl]-S-(cyclopropylmethyl)-N-[2-(trimethylsilyl)ethylsulfonyl]sulfoximide]",–,–,–,–,195 °C (dec.),–,–,–,–
"C[C@@H](Nc1nc(Nc2ccc(S(=N)(=O)CC3CC3)cc2)ncc1Br)C(C)(C)O (mixture of isomers) [Example 1.9, (RS)-S-[4-({5-bromo-4-[(R)-(2-hydroxy-1,2-dimethylpropyl)amino]pyrimidin-2-yl}amino)phenyl]-S-(cyclopropylmethyl)sulfoximide]",0.1 µM,0.004 µM,0.005 µM,0.049 µM,–,–,0.1 µM,0.11 µM,0.1 µM
"C[C@@H](Nc1nc(Nc2ccc(S(=O)(=NS(=O)(=O)CC[Si](C)(C)C)C3CCCC3)cc2)ncc1Br)C(C)(C)O (mixture of isomers) [Example 1.10, (RS)-S-[4-({5-bromo-4-[(R)-(2-hydroxy-1,2-dimethylpropyl)amino]pyrimidin-2-yl}amino)phenyl]-S-cyclopentyl-N-[2-(trimethylsilyl)ethylsulfonyl]sulfoximide]",–,–,–,–,200 to 201 °C,–,–,–,–
"C[C@@H](O)[C@@H](C)Oc1nc(Nc2ccc(S(C)(=N)=O)cc2)ncc1Br (mixture of isomers) [Example 1.4, (RS)-S-[4-({5-bromo-4-[(1R,2R)-2-hydroxy-1-methylpropoxy]pyrimidin-2-yl}amino)phenyl]-S-methyl sulfoximide]",0.06 µM,–,0.013 µM,0.34 µM,–,0.05 µM,0.1 µM,0.06 µM,0.08 µM
"C[C@@H](Nc1nc(Nc2ccc(S(=N)(=O)C3CCCC3)cc2)ncc1Br)C(C)(C)O (mixture of isomers) [Example 1.11, (RS)-S-[4-({5-bromo-4-[(R)-(2-hydroxy-1,2-dimethylpropyl)amino]pyrimidin-2-yl}amino)phenyl]-S-cyclopentylsulfoximide]",–,–,–,–,194 to 196 °C,–,–,–,–
"CCOC(=O)N=S(=O)(CC)c1ccc(Nc2ncc(Br)c(N[C@H](C)[C@@H](C)O)n2)cc1 (mixture of isomers) [Example 1.36, (RS)-S-[4-({5-bromo-4-[(1R,2R)-(2-hydroxy-1-methylpropyl)amino]pyrimidin-2-yl}amino)phenyl]-N-(ethoxycarbonyl)-S-ethyl sulfoximide]",0.14 µM,0.011 µM,0.043 µM,0.092 µM,–,–,0.17 µM,0.12 µM,1.2 µM
"C[C@H](CO)Nc1nc(Nc2ccc(S(C)(=O)=NS(=O)(=O)CC[Si](C)(C)C)cc2)ncc1Br (mixture of isomers) [Example 2.1, (RS)-S-[4-({5-bromo-4-[(R)-(2-hydroxy-1-methylethyl)amino]pyrimidin-2-yl}amino)phenyl]-S-methyl-N-[2-(trimethylsilyl)ethylsulfonyl]sulfoximide]",–,–,–,–,194 to 197 °C,–,–,–,–
"C[C@@H](O)[C@@H](C)Nc1nc(Nc2ccc(S(=O)(CCO)=NS(=O)(=O)CC[Si](C)(C)C)cc2)ncc1Br (mixture of isomers) [Example 1.16, (RS)-S-[4-({5-Bromo-4-[(1R,2R)-(2-hydroxy-1-methyl-propyl)amino]pyrimidin-2-yl}amino)phenyl]-S-(2-hydroxyethyl)-N-[2-(trimethylsilyl)ethylsulfonyl]sulfoximide]",0.18 µM,0.13 µM,0.17 µM,0.13 µM,–,–,0.19 µM,0.2 µM,4 µM
